Measured values taken from patent publication US8426447B2, “Spiro-tricyclic ring compounds as beta-secretase modulators and methods of use” (Amgen Inc., priority 2008, dated 2013).

Experiments:
BACE1 [1] = molecular target: T1, BACE1 (Homo sapiens, UniProt P56817); assay: In Vitro BACE Cell-based Assay (HEK cell assay): Aβ40 in conditioned medium of cells stably expressing Amyloid Precursor Protein, sandwich ELISA
Outline: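 HEK cells stably expressing APP were treated 24 h with compound in 10-point dose response starting at 100 or 10 μM (0.1% DMSO). Secreted Aβ40 quantified by sandwich ELISA (pAb40 capture, biotinylated 6E10 detection, europium time-resolved fluorescence), with IC50 derived from percent inhibition versus concentration.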

BACE1 [2] = molecular target: T1, BACE1; assay: In Vitro Enzymatic BACE FRET (Fluorescence Resonance Energy Transfer) Assay; type: biochemical
Outline: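 Buffer 0.05 M acetate pH 4.2 with 10% DMSO final and 100 uM genapol; reaction started with 50 nM FRET peptide substrate (fluorophore/quencher flanking BACE cleavage site), incubated one hour. Stopped with Tris buffer raising pH to neutrality, then fluorescence read.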

[3] = Table IV, class symbols, read-out: HEK cell assay
[4] = Table IV, class symbols, read-out: BACE1 FRET assay
[5] = HEK cells, read-out: HEK cell assay
[6] = HEK cell-based assay, Aβ40 in conditioned medium, IC50 class symbols, read-out: HEK cell assay
[7] = in vitro BACE FRET enzyme assay, IC50 class symbols, read-out: BACE1 FRET assay
[8] = Table III, IC50's in uM ranges, read-out: HEK cell assay
[9] = Table III, IC50's in uM ranges, read-out: BACE1 FRET assay

T1 sequence (P56817 46-501, species assumed): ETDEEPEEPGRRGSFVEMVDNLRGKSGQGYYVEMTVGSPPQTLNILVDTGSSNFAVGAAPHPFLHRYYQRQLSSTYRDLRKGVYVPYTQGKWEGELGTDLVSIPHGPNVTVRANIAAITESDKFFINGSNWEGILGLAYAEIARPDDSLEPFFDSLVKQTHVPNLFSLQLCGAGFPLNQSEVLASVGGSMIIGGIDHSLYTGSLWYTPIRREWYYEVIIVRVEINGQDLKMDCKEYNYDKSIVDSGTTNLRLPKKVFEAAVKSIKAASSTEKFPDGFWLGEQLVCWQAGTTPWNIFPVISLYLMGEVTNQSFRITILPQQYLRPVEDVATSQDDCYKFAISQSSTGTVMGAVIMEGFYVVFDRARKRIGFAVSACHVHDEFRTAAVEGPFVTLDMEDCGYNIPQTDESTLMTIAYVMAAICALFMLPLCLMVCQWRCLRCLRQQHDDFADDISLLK

`NC1=N[C@]2(CO1)c1cc(-c3cccnc3)ccc1Oc1c(F)cc(C3=CCOCC3)cc12` [compound 644] was tested, and the IC50 (BACE1 [1]; [3]) was 1 to 5 µM and the IC50 (BACE1 [2]; [4]) was 0.1 to 1 µM.
For `COc1cc(-c2cc3c(cn2)Oc2ccc(-c4cccnc4F)cc2[C@@]32COC(N)=N2)ccn1` [compound 430], the IC50 (BACE1 [1]; [5]) was 0.1 to 1 µM and the IC50 (BACE1 [2]; read-out: BACE1 FRET assay) was under 0.1 µM.
Work on `Cn1cc(-c2cc3c(cn2)Oc2ccc(-c4cccc(Cl)c4)cc2[C@@]32COC(N)=N2)cn1` [compound 329] yielded an IC50 (BACE1 [1]; [6]) of under 0.1 µM and an IC50 (BACE1 [2]; [7]) of under 0.1 µM.
`CCCOc1ccc2c(c1)[C@]1(COC(N)=N1)c1cc(-c3cncnc3)ccc1O2` [Example 5, (4S)-2′-propoxy-7′-(5-pyrimidinyl)spiro[1,3-oxazole-4,9′-xanthen]-2-amine] gave an IC50 (BACE1 [1]; Table 1, Aβ40, 24 h incubation, read-out: HEK cell assay) of under 0.1 µM and an IC50 (BACE1 [2]; Table 1, read-out: BACE1 FRET assay) of under 0.1 µM.
For `CC(C)(C)/C=C/c1cc2c(cn1)Oc1ccc(-c3cccnc3F)cc1[C@@]21COC(N)=N1` [compound 514], the IC50 (BACE1 [1]; [5]) was under 0.1 µM and the IC50 (BACE1 [2]; read-out: BACE1 FRET assay) was under 0.1 µM.
In the case of `NC1=N[C@]2(CO1)c1cc(CCC3(O)CCC3)ccc1Oc1ccc(-c3cccnc3)cc12` [compound 859], the IC50 (BACE1 [1]; [3]) is reported as under 0.1 µM and the IC50 (BACE1 [2]; [4]) is reported as under 0.1 µM.
`NC1=N[C@]2(CO1)c1cc(-c3cncnc3)ccc1Oc1c(F)cc(C3=CCOCC3)cc12` [compound 637] was tested, and the IC50 (BACE1 [1]; [3]) was 0.1 to 1 µM and the IC50 (BACE1 [2]; [4]) was 1 to 5 µM.
With `CC(=O)c1sccc1-c1ccc2c(c1)[C@@]1(COC(N)=N1)c1cc(OCC(C)(C)C)ccc1O2` [compound 835] the IC50 (BACE1 [1]; [3]) was over 5 µM and the IC50 (BACE1 [2]; [4]) was 1 to 5 µM.
In the case of `CC(C)(C)COc1ccc2c(c1)[C@]1(COC(N)=N1)c1cc(-c3ncc[nH]3)ccc1O2` [compound 979], the IC50 (BACE1 [1]; read-out: HEK cell assay) is reported as 1 to 5 µM and the IC50 (BACE1 [2]; read-out: BACE1 FRET assay) is reported as 0.1 to 1 µM.
`Cc1cc(-c2ccc3c(c2)[C@]2(COC(N)=N2)c2cc(-c4cccnc4)ccc2O3)cc(=O)o1` [compound 390] showed an IC50 (BACE1 [1]; [6]) of under 0.1 µM and an IC50 (BACE1 [2]; [7]) of under 0.1 µM.
For `CC(C)(C)COc1ccc2c(c1)[C@]1(COC(N)=N1)c1cc(CO)ccc1O2` [compound 828], the IC50 (BACE1 [1]; [3]) was 1 to 5 µM and the IC50 (BACE1 [2]; [4]) was 1 to 5 µM.
Work on `COc1ccc2c(c1)[C@]1(COC(N)=N1)c1cc(-c3cncnc3)cc(F)c1O2` [152a] yielded an IC50 (BACE1 [1]; [8]) of 1 to 5 µM and an IC50 (BACE1 [2]; [9]) of 0.1 to 1 µM.
`CC(C)(C)C#Cc1ccc2c(c1)[C@@]1(COC(N)=N1)c1cc(-c3ccc(F)nc3)ccc1O2` [147b] showed an IC50 (BACE1 [1]; [8]) of 0.1 to 1 µM and an IC50 (BACE1 [2]; [9]) of under 0.1 µM.
Molecule `CC(C)(C)OC(=O)n1cccc1-c1ccc2c(c1)[C@@]1(COC(N)=N1)c1cccc(F)c1O2` [compound 510] has an IC50 (BACE1 [1]; [5]) of 1 to 5 µM and an IC50 (BACE1 [2]; read-out: BACE1 FRET assay) of 1 to 5 µM.
Work on `N#CCOc1ccc2c(c1)[C@]1(COC(N)=N1)c1cc(-c3cccnc3)ccc1O2` [compound 981] yielded an IC50 (BACE1 [1]; read-out: HEK cell assay) of 1 to 5 µM and an IC50 (BACE1 [2]; read-out: BACE1 FRET assay) of 0.1 to 1 µM.
`NC1=N[C@@]2(CO1)c1cc(-c3cccnc3)ccc1Oc1cnc(N3CCN(CC(=O)O)CC3)cc12` [compound 396] showed an IC50 (BACE1 [1]; [6]) of 0.1 to 1 µM and an IC50 (BACE1 [2]; [7]) of under 0.1 µM.
`C[C@@H]1OC(N)=N[C@@]12c1cc(OCC(C)(C)C)ccc1Oc1ccc(-c3cncnc3)cc12` [126b] showed an IC50 (BACE1 [1]; [8]) of 0.1 to 1 µM and an IC50 (BACE1 [2]; [9]) of under 0.1 µM.
`COc1ccc2c(c1)[C@@]1(COC(N)=N1)c1cc(C3=CCOCC3)cc(F)c1O2` [compound 364] gave an IC50 (BACE1 [1]; [6]) of 1 to 5 µM and an IC50 (BACE1 [2]; [7]) of 0.1 to 1 µM.
`CC(=O)/C=C/c1ccc2c(c1)[C@]1(COC(N)=N1)c1cc(-c3cncnc3)ccc1O2` [compound 857] was tested, and the IC50 (BACE1 [1]; [3]) was 0.1 to 1 µM and the IC50 (BACE1 [2]; [4]) was under 0.1 µM.
For `CC(C)C[C@H]1CN(c2ccc3c(c2)[C@]2(COC(N)=N2)c2cc(-c4cccnc4)ccc2O3)CCO1` [compound 359], the IC50 (BACE1 [1]; [6]) was 0.1 to 1 µM and the IC50 (BACE1 [2]; [7]) was 0.1 to 1 µM.
For `COC(C)(C)C#Cc1cnc2c(c1)[C@@]1(COC(N)=N1)c1cc(-c3ccnnc3)ccc1O2` [compound 681], the IC50 (BACE1 [1]; read-out: HEK cell assay) was over 5 µM and the IC50 (BACE1 [2]; read-out: BACE1 FRET assay) was 1 to 5 µM.
`Cc1ccc(-c2cnc3c(c2)[C@]2(COC(N)=N2)c2cc(C#CC(C)(C)O)ccc2O3)cc1` [compound 579] was tested, and the IC50 (BACE1 [1]; [3]) was under 0.1 µM and the IC50 (BACE1 [2]; [4]) was under 0.1 µM.
`NC1=NC2(CO1)c1cc(-c3cccnc3)ccc1Oc1c2cc(-c2cccnc2)nc1F` (stereo not shown) [compound 301, 1-fluoro-3,7-di(pyridin-3-yl)-5′H-spiro[chromeno[2,3-c]pyridine-5,4′-oxazol]-2′-amine] showed an IC50 (BACE1 [1]; [6]) of under 0.1 µM and an IC50 (BACE1 [2]; [7]) of under 0.1 µM.
`CC(C)(C)COc1ccc2c(c1)[C@]1(COC(N)=N1)c1cc(N3CCCCC3)ccc1O2` [compound 813] gave an IC50 (BACE1 [1]; [3]) of 0.1 to 1 µM and an IC50 (BACE1 [2]; [4]) of 0.1 to 1 µM.
Work on `NC1=N[C@@]2(CO1)c1cc(-c3cncnc3)ccc1Oc1ccc(N3CC(F)(F)C3)cc12` [compound 508] yielded an IC50 (BACE1 [1]; [5]) of under 0.1 µM and an IC50 (BACE1 [2]; read-out: BACE1 FRET assay) of under 0.1 µM.
In the case of `NC1=N[C@@]2(CO1)c1cc(-c3cccnc3F)ccc1Oc1cnc(C3CCOCC3)cc12` [Example 495, (5S)-7-(2-fluoro-3-pyridinyl)-3-(tetrahydro-2H-pyran-4-yl)spiro[chromeno[2,3-c]pyridine-5,4′-[1,3]oxazol]-2′-amine], the IC50 (BACE1 [1]; HEK cell assay (uM), HEK cells) is reported as under 0.1 µM and the IC50 (BACE1 [2]; BACE1 FRET assay (uM)) is reported as under 0.1 µM.
